Test system: 695427-040-R-J1-PDC complex spheroids, viability percent T/C
Experiment: Anticancer human tumor 695427-040-R-J1-PDC patient-derived colon adenocarcinoma cell line growth inhibition [GQUAD]
Conditions: for IC50: curve of first compound; for viability, T/C: stronger effect = lower value
Text: DNA G-quadruplex Stabilizer Agents in Combinations in Complex Spheroids
A high-throughput screen of multi-cell type tumor spheroids was designed to identify active combinations of DNA G-quadruplex stabilizer agents and targeted small molecules. Complex spheroids include a stromal component modeled by human endothelial cells (HUVEC) and fibroblasts modeled by human mesenchymal stem cells (MSCs). The concentration ranges selected for each drug and investigational agent were based upon clinically achievable concentrations if the clinical Cmax of the agent was known.
Compounds. The drugs and investigational agents: pidnarulex (CX-5461; NSC782164), APTO-253 (NSC789042), BRACO-19 (NSC847499), peposertib (NSC802822), ceralasertib (NSC780249), elimusertib (NSC800525), camonsertib (NSC841442), AZD-1390 (NSC803789), olaparib (NSC753686), talazoparib (NSC767125), ART-558 (NSC835418), sotorasib (NSC818433), MRTX-1133 (NSC836407), SN-38 (NSC673596), topotecan (NSC609699), etoposide (NSC141540), doxorubicin (NSC123127), gemcitabine (NSC613327), 5-fluorouracil (NSC19893), paclitaxel (NSC125973), vemurafenib (NSC761431), panobinostat (NSC761190), R-306465 (JNJ-16241199; NSC773264), adavosertib (NSC754352), TP-3654 (NSC805149), carboplatin (NSC241240), KSQ-4279 (NSC840948), and staurosporine (NSC755774) were obtained from the National Cancer Institute (NCI) Developmental Therapeutics Program Chemical Repository (34). The FDA-approved anticancer drug set is available from the NCI Developmental Therapeutics Program. […] The stock solutions were prepared in dimethyl sulfoxide (DMSO, Sigma-Aldrich, St. Louis, MO, cat. D2650) at 800-fold the tested concentration and stored at -70 degrees C prior to their use. All drugs and investigational agents were tested over a range starting from a high concentration at or near the clinical Cmax and decreasing in half-log increments. If the clinical Cmax for an agent had not been determined, the highest concentration tested was 10 microM.
2.3 Cell Culture. All cells were maintained in an incubator at 37 degrees C and 5% CO2 with 95% humidity. The PDC lines were cultured according to standard operating procedures established by the NCI PDMR. All PDCs were thawed and cultured in Matrigel-coated flasks prepared with a working solution of 1X Ham's F-12 nutrient mix, without supplementation (Invitrogen, cat. 11765054), 100 U/mL penicillin-streptomycin (Invitrogen, cat. 15140122), and 2.5% Matrigel (Corning Inc., cat. 354248) for the first three passages. The 857933-349-R-J2-PDC line was cultured in 6C/Colon 1B media, which includes advanced DMEM/F-12 (Thermo Fisher Scientific, cat. 12634028), 10 mM HEPES (Thermo Fisher Scientific, cat. 15630080), 1X GlutaMAX supplement (Thermo Fisher Scientific, cat. 35050061), 0.1 mg/mL primocin (InvivoGen, cat. ant-pm-2), 10% defined fetal bovine serum, heat inactivated (HyClone Laboratories Inc., cat. SH30070.03HI), 50% L-WRN conditioned media (ATCC, cat. CRL-3276), 1.25 mM N-Acetyl-L-cysteine (Sigma-Aldrich, cat. A9165), 10 mM nicotinamide (Sigma-Aldrich, cat. N0636), 1X B-27 supplement (Thermo Fisher Scientific, cat. 17504044), 1X N-2 supplement (Thermo Fisher Scientific, cat. 17502048), 10 microM Y-27632 dihydrochloride (Tocris Bioscience, cat. 1254), and 50 ng/mL human EGF recombinant protein (Thermo Fisher Scientific, cat. PHG0311). The 485176-168-R4-J1-PDC line was cultured in Panc media, which includes all 6C/Colon 1B media components plus 100 ng/mL human FGF-10 (Thermo Fisher Scientific, cat. 100-26), 500 nM SB-431542 (Selleckchem, cat. S1067), and gastrin (Tocris, cat. 3006).
[…]
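Also: spheroids exposed to compounds for seven days before readout.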

## CC(C)n1c(=O)n(C)c2cnc3cc(F)c(-c4ccc(OCCCN5CCCCC5)nc4)cc3c21 + CN(C)c1ccc(Nc2c3ccc(NC(=O)CCN4CCCC4)cc3nc3cc(NC(=O)CCN4CCCC4)ccc23)cc1
Second compound 0.0316 µM
  IC50: > 10 µM
Second compound 0.1 µM
  IC50: > 10 µM
Second compound 0.316 µM
  IC50: > 10 µM
Second compound 1 µM
  IC50: > 10 µM
Second compound 3.16 µM
  IC50: > 10 µM
Second compound 10 µM
  IC50: > 10 µM
Second compound 0.0316 µM, first compound 0.0316 µM
  viability, T/C: 113%
Second compound 0.0316 µM, first compound 0.1 µM
  viability, T/C: 96.1%
Second compound 0.0316 µM, first compound 0.316 µM
  viability, T/C: 111%
Second compound 0.0316 µM, first compound 1 µM
  viability, T/C: 101%
Second compound 0.0316 µM, first compound 3.16 µM
  viability, T/C: 104%
Second compound 0.0316 µM, first compound 10 µM
  viability, T/C: 66%
Second compound 0.1 µM, first compound 0.0316 µM
  viability, T/C: 107%
Second compound 0.1 µM, first compound 0.1 µM
  viability, T/C: 97.3%
Second compound 0.1 µM, first compound 0.316 µM
  viability, T/C: 106%
Second compound 0.1 µM, first compound 1 µM
  viability, T/C: 102%
Second compound 0.1 µM, first compound 3.16 µM
  viability, T/C: 110%
Second compound 0.1 µM, first compound 10 µM
  viability, T/C: 62.5%
Second compound 0.316 µM, first compound 0.0316 µM
  viability, T/C: 108%
Second compound 0.316 µM, first compound 0.1 µM
  viability, T/C: 98.5%
Second compound 0.316 µM, first compound 0.316 µM
  viability, T/C: 102%
Second compound 0.316 µM, first compound 1 µM
  viability, T/C: 106%
Second compound 0.316 µM, first compound 3.16 µM
  viability, T/C: 100%
Second compound 0.316 µM, first compound 10 µM
  viability, T/C: 67.4%
Second compound 1 µM, first compound 0.0316 µM
  viability, T/C: 101%
Second compound 1 µM, first compound 0.1 µM
  viability, T/C: 102%
Second compound 1 µM, first compound 0.316 µM
  viability, T/C: 110%
Second compound 1 µM, first compound 1 µM
  viability, T/C: 105%
Second compound 1 µM, first compound 3.16 µM
  viability, T/C: 100%
Second compound 1 µM, first compound 10 µM
  viability, T/C: 62.9%
Second compound 3.16 µM, first compound 0.0316 µM
  viability, T/C: 86.4%
Second compound 3.16 µM, first compound 0.1 µM
  viability, T/C: 101%
Second compound 3.16 µM, first compound 0.316 µM
  viability, T/C: 94.4%
Second compound 3.16 µM, first compound 1 µM
  viability, T/C: 98.8%
Second compound 3.16 µM, first compound 3.16 µM
  viability, T/C: 95.5%
Second compound 3.16 µM, first compound 10 µM
  viability, T/C: 68.1%
Second compound 10 µM, first compound 0.0316 µM
  viability, T/C: 89.4%
Second compound 10 µM, first compound 0.1 µM
  viability, T/C: 92.2%
Second compound 10 µM, first compound 0.316 µM
  viability, T/C: 93.3%
Second compound 10 µM, first compound 1 µM
  viability, T/C: 89.3%
Second compound 10 µM, first compound 3.16 µM
  viability, T/C: 93.7%
Second compound 10 µM, first compound 10 µM
  viability, T/C: 59.4%

Source: PubChem BioAssay AID2060492 (Molecular Pharmacology Branch, DTP, NCI, 2025)
